This is an account of results in patent US20110207694A1, “MAMMALIAN HYPOTHALAMIC NUTRIENT MODULATION OF GLUCOSE METABOLISM” (priority 2005, published 2011).

The test system of data set [1] is conscious rats. The experiment in a line: Intravenous lactate infusion with or without MBH oxamate: plasma TG and hepatic TG-VLDL production. Type of data set: in vivo, rat. As for the experimental part: (§1) Infusion protocols. The in vivo infusion experiments lasted a total of 360 min, and the experiments were carried out in rats that had their food removed ˜5 h before the experiments. Thus, at the time of the experiment, the rats are in post-absorptive state since their stomach should be completely emptied by 5 h fasting. […] This ICV glucose protocol physiologically elevate hypothalamic glucose concentration by ˜70% as previously described (Lam et al., 2005b) and is similar to that induced by a doubling of the circulating glucose levels (Lam et al., 2005b). During the ICV infusions, we monitored the plasma metabolite levels under pre-infused (0 min), basal (180-240 min) and pancreatic clamp (300-360 min) conditions. […] A basal insulin-pancreatic clamp was performed in the final 2 h (240-360 min) of the study as previously described (Lam et al., 2005b). In brief, a continuous infusion of insulin (1 mU/kg.min) and somatostatin (3 μg/kg.min) was administered, and a variable infusion of a 25% glucose solution was started and periodically adjusted to clamp and maintain the plasma glucose concentration at ˜8 mM. […] To examine the time-dependent effects of ICY glucose on plasma triglycerides, ICY (5 μl/h) 2 mM D-glucose or mannitol was administrated for 210 min and plasma triglyceride levels were monitored at 0, 20, 60, 120, 180, 210 min. […] Plasma triglycerides were monitored under basal, pancreatic clamp and tyloxapol-treated conditions. At the end of the infusion experiments, rats were anesthetized and tissue samples were freeze-clamped in situ with aluminum tongs pre-cooled in liquid nitrogen. All tissue samples were stored at −80° C. for subsequent analysis.
VLDL are decreased in the hours following an acute bout of exercise. […] To investigate the mechanism by which lactate lowers plasma TG levels, the rate of production of hepatic TG-enriched VLDL was measured.

Data set [2] has as its system high fat-fed rats. The data set can be described thus: ICV glucose or lactate in high fat-fed rats: plasma triglycerides and VLDL secretion. Type of data set: in vivo, rat. As for the experimental part: High fat feeding. Male Sprague-Dawley rats were fed a highly palatable high fat diet for three days. These rats developed hyperinsulinemia and hepatic insulin resistance (Morgan et al., 2004). […] In a separate set of studies, lipoprotein secretion studies were performed at the beginning of the ICV infusions.

In data set [3] the test system is conscious rats. The experiment in a line: ICV glucose or lactate infusion with pancreatic basal insulin clamp: plasma glucose and liver glucose production. Type of data set: in vivo, rat. From the text: We hypothesize that the hypothalamic sensing of glucose-derived pyruvate is a novel regulator of endogenous glucose production (GP). […] We propose that an increase in neuronal pyruvate levels is a hypothalamic signal of nutrient availability.
Long chain fatty acids in the brain decrease glucose production (GP) by the liver via activation of hypothalamus ATP-sensitive (KATP) channels. Here we tested whether (A) direct administration of glucose in the third cerebral ventricle can alter glucose production by the liver, and (B) whether this effect requires its metabolism in the TCA cycle.

The subject of data set [4] is male Sprague-Dawley rats. The experiment in a line: ICV infusion: plasma triglycerides and metabolites under basal and pancreatic clamp conditions. Type of data set: in vivo, rat.
From the text: Animal preparation. We studied 10-week-old male Sprague-Dawley rats. Rats underwent stereotaxic surgery to indwell single catheters in the third cerebral ventricle {intracerebroventricular (ICV)(Obici et al., 2001) or bilateral catheters into the mediobasal hypothalamus (Lam et al., 2005c). One week later, we placed indwelling catheters in the internal jugular vein and carotid artery for sampling and infusion during the in vivo experiments (Obici et al., 2001). Recovery from surgery was monitored by measuring daily food intake and weight gain for 4-5 days after surgery.
as §1
Biochemical analyses. Plasma glucose concentrations were measured by the glucose oxidase method (Glucose Analyzer II, Beckman Instruments, Inc., Fullerton, Calif.). […] FFA concentrations were determined by an enzyme assay in accordance with the manufacturer's specifications (Waco Pure Chemical Industries. Osaka. Japan). Plasma insulin concentrations (with rat and porcine insulin standards) were measured by radioimmunoassay (RIA). Plasma adiponectin concentrations were measured by RIA (Linco Inc., Austin, Tex., USA). Liver triglycerides were measured as described (Muse et al., 2004).
Calculations. Statistical analysis was done by unpaired Student's t test or analysis of variance as appropriate. Data are presented as means±SEM. All values were collapsed into a single value for each animal prior to the calculation of mean. The time period 180-240 min was averaged for the basal and the time period 300-360 min was averaged for the clamp conditions.

The test system of data set [5] is hepatic VLDL secretion. The data set can be described thus: Lipoprotein (VLDL) secretion studies with tyloxapol; NMR particle size. Type of data set: in vivo, rat. Particulars: increased central metabolism of lactate to pyruvate, rats (Example 3). The protocol:
Lipoproteins secretion and particles concentration and size measurements. Tyloxapol (600 mg/kg; ˜1 min) was intravenously injected to inhibit endogenous lipoprotein lipase. This high dose of tyloxapol ensured complete inhibition of triglyceride clearance during VLDL secretion studies. Plasma samples were taken every 30 min for triglycerides analysis and for lipoprotein profiling. Plasma VLDL particles concentration and size were determined by nuclear magnetic resonance spectroscopy (lipoprofile-II test) at Liposcience as previously described (Otvos et al., 1991; 1992). This NMR lipoprofile-II test is based on the assumption that each plasma lipoprotein particle of a particular size gives its own characteristic lipid NMR signal. The intensity of the signal is also in proportion to the concentration of the particle. The diameter range for large, medium and small VLDL is >60 nm, 35-60 nm, and 27-35 nm, respectively.
Selective hepatic branch vagotomy. The surgeries were performed as described (Lam et al., 2005c).
Treatment with SCD1 ASO. Five and two days before the lipoprotein secretion studies, rats received a single intra-peritoneal injection of either SCD1 or scrambled (SCR) ASO (100 mg/kg of body weight). […] In a separate set of studies, rats received intra-portal injection of either SCD1 or SCR ASO (40 mg/kg of body weight) (Gutierrez-Juarez et al., 2006) three days before the lipoprotein secretion studies.
Portal oleate infusion. Chronic portal catheter was implanted and 7 days were allowed for rat recovery. Oleic acid (45 mM; dissolved in 45% HBP) was infused at a rate of 40 μl/h for 2.5 h (1 h before the 90 min lipoprotein secretion studies). This dose enabled the reconstitution of hepatic oleyl-CoA levels back to normal during portal SCD1 ASO (FIG. 11c) or ICV glucose studies (FIG. 11d).

In data set [6] the test system is high fat-fed rats. The experiment in a line: Central glucose or lactate in regular chow vs 3-day high fat diet-fed animals: glucose production. Type of data set: in vivo, rat. The settings on record: central administration. From the text:
The latter is an excellent model for diet-induced insulin resistance.

Data set [7] relates to rats. The data set can be described thus: Food intake after central (ICV) glucose or lactate. Type of data set: in vivo, rat.
For data set [8], the system named is conscious rats. The experiment in a line: Circulating lactate infusion with central LDH inhibitor or KATP blocker: glucose kinetics during pancreatic clamps. The settings on record: pancreatic clamps.

“Also recorded” adds a separate entry of the source. A value given as a limit tells only on which side of the number the result lay.

Turning to `C[C@H](O)C(=O)O` [lactate, L-lactate], the “plasma TG levels” value in data set [1] (i.v. lactate 100 μmol•kg-1•min-1, i.v. saline 0.28±0.09) was 0.11 ± 0.02 mM. Also, in data set [1] (i.v. lactate infusion, i.v. saline 0.059±0.003), the “rate of production of hepatic TG-enriched VLDL” value turned out to be 0.041 ± 0.002 mM/min. Moreover, in data set [1] (i.v. lactate vs i.v. saline), the “decrease in VLDL production” value worked out at 31% and the “lowering of plasma TG levels” value was greater than 50%. The VLDL secretion result in data set [1] (physiological increase in plasma lactate) is “sufficient to inhibit VLDL secretion”. For the same molecule, in data set [1] (~two-fold increase in circulating lactate, basal and clamp conditions), the plasma triglyceride result was “significant decrease in plasma triglyceride in both conditions”. In addition, the “rate of appearance of VLDL-triglycerides in plasma” value in data set [2] (HF rats, tyloxapol) is given as “decreased the rate of appearance of VLDL-triglycerides in plasma to levels similar to those of SC rats”. In addition, the “circulating levels of triglycerides” value in data set [2] (high fat-fed rats) is “effectively lowered the circulating levels of triglycerides to levels similar to those of rats on a standard chow”. For the same molecule, in data set [3] (central (ICV) administration), the circulating glucose levels result is “sufficient to markedly diminish circulating glucose levels; also recorded: lowered circulating glucose levels”. Besides, in data set [3] (central administration), the gluconeogenesis and glycogenolysis entry was “inhibited gluconeogenesis and glycogenolysis”; the “liver glucose production, G6Pase flux and mRNA” value was “reduced liver glucose production, G6Pase flux and mRNA”. The molecule further had a plasma glucose concentrations in data set [3] (four hour ICV infusion 5 μl/h (glucose 2 mM, lactate 5 mM), control 150±4) of 129 ± 3 mg/dL. Besides, the “exogenous glucose infusion rate required to maintain euglycemia” value in data set [3] (pancreatic basal insulin clamps, central administration) is recorded as “increased exogenous glucose infusion rate”. Also, the “GP (glucose production)” value in data set [3] (pancreatic clamps, plasma glucose and insulin at basal, ICV infusion, control 10.4±0.1 (glucose), 11.7±0.6 (lactate)) was 6.5 ± 0.6 mg/kg/min. Besides, the “plasma free fatty acids levels” value in data set [4] (ICV infusion) was “did not affect plasma free fatty acids levels”. In data set [4] (ICV infusion (glucose 2 mM, L-lactate 5 mM)), the plasma triglyceride levels entry was “markedly decreased plasma triglycerides levels”. Besides, the “suppression of plasma TG levels” value in data set [4] (increased central metabolism of lactate to pyruvate, rats (Example 3)) is listed as roughly 50%. The “suppression of hepatic TG-enriched VLDL production” value in data set [5] was roughly 40%. Besides, in data set [6] (3-day high fat diet-fed animals), the glucose production entry is on record as “entirely preserved; also recorded: lowered glucose production”. Further, the glucose production result in data set [6] (regular chow animals) is reported as “lowered glucose production”. In addition, the food intake overnight entry in data set [7] (central administration) was “inhibits food intake overnight”. Besides, the “decrease in food intake” value in data set [7] (the day following ICV injection) is recorded as roughly 40%. In data set [8] (intravenous infusion of lactate alone), the glucose infusion kinetics entry was “did not affect glucose infusion kinetics”. Moreover, in data set [8] (intravenous infusion of lactate), the “elevation of plasma lactate” value is on record as roughly 3 fold.
